# Test results from patent US8242152B2, “Use of 4-[(4-thiazolyl)phenoxy]alkoxy-benzamidine derivatives for the prophylaxis and treatment of osteoporosis” (Dong Wha Pharmaceutical Co., Ltd., priority 2001, dated 2012).
# Experiments:
# [1] = system: osteoclast differentiation; experiment: Osteoclast differentiation, co-culture, TRAP(+)MNCs (Example 5); type: cell-based, mice; settings: for % inhibitory action / inhibition at 0.01 µM / inhibition at 0.1 µM / inhibition at 1 µM: day 6; for inhibition at 0.01 µM / inhibition at 0.1 µM / inhibition at 1 µM: Mus musculus, Osteoclast, 144 h, read-out: % inhibitory action
# Protocol: To investigate the effect of compounds on osteoclast differentiation, co-culture between bone marrow cells (2.5×10^5 cells/cm^2) and calvaria-derived osteoblastic cells (4×10^4 cells/cm^2) was conducted in the presence of 1.25(OH)2D3(10^−8 M) and dexamethasone (10^−7 M) with α-MEM containing 10% FBS (referred as “osteoclastic medium”). Bone marrow cells were isolated from the femora of 6-week-old ddY mice and primary osteoblastic cells were isolated from the calvariae of newborn ICR mice by sequential digestion with 0.2% collagenase. The medium was changed every two days with fresh osteoclastic medium. An index of osteoclast formation was determined by counting TRAP-positive multinucleated osteoclasts (TRAP(+)MNCs). On day 6, the cells were fixed with 10% formaldehyde and stained for TRAP. The number of TRAP(+) MNCs containing more than 6-7 nuclei was counted under a microscope (ZEISS Axiovert 25, Switzerland). The results are shown as the relative inhibitory activity (% inhibition) compared to the control group.
# osteoclast fusion [2] = experiment: Osteoclast fusion assay with purified prefusion osteoclasts (Example 5); type: cell-based, mice; settings: for inhibition at 0.08 µM / inhibition at 0.4 µM / inhibition at 2 µM / inhibition at 10 µM: read-out: Inhibitory action (%)
# Protocol: The effect of the compounds on the fusion of osteoclasts was examined using purified prefusion osteoclasts (pOC, mononuclear and binuclear osteoclasts). Co-cultures of bone marrow cells (2×10^7 cells/dish) and newborn mice calvariae (1×10^6 cells/dish) were maintained in 100-mm-diameter dishes for 4 days with osteoclast differontiarion factor. Cultures were washed twice with PBS and treated with 0.1% collagenase/dispase at 37° C. for 20 minutes. Released cells, mostly osteoblasts, were removed with a pipet and the plates were washed three times with PBS. The remaining cells were incubated with 30 uM echistatin in α-MEM containing 1% BSA for 20 min at 37° C. These cells were collected, pelleted, and washed once with α-MEM containing 10% FBS. The cells released by this treatment were the subject of the fusion assay. More than 90% of the cells in the pOCs preparation used in the present study were positive for TRAP.
# pOCs (15,000 cells/well) were plated on 96 well culture plates with or without various compounds. After culture for 18 hours, the cells were fixed and stained for TRAP.
# [3] = system: Primary osteoblastic cells; experiment: ALP activity in primary osteoblastic cells (Example 5); type: cell-based, ICR mice; settings: for ALP activity (% of control) / ALP activity (Unit): 3 days
# Protocol: Primary osteoblastic cells isolated from the calvariae of newborn ICR mice were grown to confluence in α-MEM containing 10% FBS. These cells were plated at a density of 1×10^5/ml in tissue culture dishes. After 24 h, cells were changed with a differentiation medium containing ascorbic acid (50 ug/ml) and β-glycerophosphate (10 mM) with or without the compounds and further cultured for 3 days. Cells were washed twice with PBS and harvested. For the measurement of ALP activity and total protein content, cells were extracted into 0.1% Triton X-100 in PBS containing 1 mM MgCl2 and centrifuged at 1.000×g for 5 minutes. Enzyme activity was determined in supernatants by colorimetric procedure using p-nitrophenyl phosphate (PNP) as a substrate at a wavelength of 405 nm and the protein content was determined by a Bio-Rad protein assay kit. The ALP unit was expressed as nmol PNP/ug protein/min.
# osteoclast fusion [4] = experiment: Fusion assay of prefusion osteoclasts (Example 2); type: cell-based, mice; settings: 24 hrs; for inhibition at 0.08 µM / inhibition at 0.4 µM / inhibition at 2 µM / inhibition at 10 µM: read-out: Inhibitory action (%)
# From the text: This assay is designed to evaluate the influences of each test substance in terms of osteoclast fusion during the differentiation process in which immature prefusion osteoclasts (pOC; osteoclast structure with one more nuclei) were transformed into mature multinucleated osteoclast (OCL) via cell to cell fusion (Gregg Wesolowski et al. Experimental Cell Research 219,679-686, 1995).
# The prefusion osteoclast can be obtained via co-culture of both bone marrow cells and osteoblast, as prepared from Example 1. The mixture of both osteoblast (about 5×10^5 cells/plate) and bone marrow cells (about 1×10^7 cells/plate) were co-cultured in a 100 mm culture dish. Some differentiation factors, such as dexamethasone (10^−6M) and vitamin D3 (10^−9M), were added to the medium from the first day of culture. The medium was changed with a fresh medium containing differentiation factors every 2 days.
# Since a great number of the prefusion osteoclasts having one or more nuclei in fusion process were formed during 4-day co-culture, the cells were separated and co-cultivation after 4 days. The medium was removed from the cells and with the addition of 0.2% collagenase solution (4 mL), the cells were incubated at 37° C. for 20 mins to separate the attachment cells. Since the majority of separated cells were osteoblasts, all osteoblasts were washed with PBS solution two or three times for their complete removal.
# After the remaining prefusion osteoclasts were separated via reaction for 20 mins with the addition of echistatin containing 10% BSA, the cells were harvested by centrifuge.
# The test substances diluted at each concentration were diluted at the desired concentration in α-MEM medium (addition of 10% FBS) to load them into a 96-well microplate in a dose of 100 uL per well. The osteoclastic monocytes, so separated from the preceding No. 1, were plated on a 96-well microplate in a dose of 5×10^3 cell/100 uL per well and cultured at 37° C. for 24 hrs, thus successfully resulting in the osteoclast fusion. In the case of specimen-free and positive controls, experiments were performed in the same manner as above.
# The medium was removed from the cells and then the cells were washed once with PBS and fixed to a PBS solution containing 10% formalin for about 5 mins. The cells were again fixed to both ethanol and acetone (1/1) in a mixing solution for about 5 mins and dried off. The cells were further treated by TRAP staining solution for 15 mins and washed with water to observe the cells under the microscope. The TRAP-positive osteoclast counts, which were differentiated from monocyte to multinucleated cells (osteoclast having more than 10 nuclei) via fusion process, were measured.
# [5] = system: osteoclast activity (resorption pits); experiment: Bone resorption pit formation assay on dentine slice (Example 5); type: cell-based, mice; settings: for Inhibitory activity (%) / inhibition at 0.01 µM / inhibition at 0.1 µM / inhibition at 1 µM: dentine slice, 24 h; for inhibition at 0.01 µM / inhibition at 0.1 µM / inhibition at 1 µM: Mus musculus, Osteoclast, read-out: Inhibitory activity (%)
# Protocol: Method for evaluating the effects of the compounds on osteoclast activity: Multinucleated osteoclasts were developed on collagen gel plates by co-culture system as described. On day 6-8 of the co-culture, multinucleated OCLs were detached from plates by 0.2% collagenase treatment (“crude OCLs”). Crude OCLs suspended in α-MEM containing 10% FBS were placed on a dentine slice (4 mm diameter) in a 96-well culture plate. […] At the end of the incubation, cells were removed by 1 M NH4OH treatment and resorption pits formed (in the slices stained with Mayer's hematoxylin). Resorption pits were enumerated with an image analyzer and compared to the control group.
# [6] = Mus musculus, Osteoclast, 0.08 uM, 18 hours
# [7] = Mus musculus, Osteoclast, 0.4 uM, 18 hours
# [8] = Mus musculus, Osteoclast, 2 uM, 18 hours
# [9] = Mus musculus, Osteoclast, 10 uM, 18 hours
# [10] = Mus musculus, Osteoclast, 0.08 uM
# [11] = Mus musculus, Osteoclast, 0.4 uM
# [12] = Mus musculus, Osteoclast, 10 uM
Compound,ALP activity (% of control) ([3]; 0.01 uM),ALP activity (Unit) ([3]; 0.01 uM) [nmol PNP/ug protein/min],ALP activity (% of control) ([3]; 0.1 uM),ALP activity (Unit) ([3]; 0.1 uM) [nmol PNP/ug protein/min],inhibition at 0.01 µM ([1]; 0.01 uM) [%],inhibition at 0.1 µM ([1]; 0.1 uM) [%],inhibition at 1 µM ([1]; 1 uM) [%],inhibition at 0.08 µM (osteoclast fusion [2]; [6]) [%],inhibition at 0.4 µM (osteoclast fusion [2]; [7]) [%],inhibition at 2 µM (osteoclast fusion [2]; [8]) [%],inhibition at 10 µM (osteoclast fusion [2]; [9]) [%],inhibition at 0.08 µM (osteoclast fusion [4]; [10]) [%],inhibition at 0.4 µM (osteoclast fusion [4]; [11]) [%],"inhibition at 2 µM (osteoclast fusion [4]; Mus musculus, Osteoclast, 2 uM) [%]",inhibition at 10 µM (osteoclast fusion [4]; [12]) [%],inhibition at 0.01 µM ([5]; 0.01 uM) [%],inhibition at 0.1 µM ([5]; 0.1 uM) [%],inhibition at 1 µM ([5]; 1 uM) [%],further results
"4-[5-[4-(aminoiminomethyl)phenoxy]pentoxy]-3-methoxy-N,N-bis(1-methylethyl)benzamide maleic acid [CGS-25019C]",121.3 % of control,20.6,115.3 % of control,19.7,,,,,,,,,,,,,,,"% inhibitory action ([1]; 0.01 uM): 11.2%; % inhibitory action ([1]; 0.1 uM): 29.5%; % inhibitory action ([1]; 1 uM): 36.9%; Inhibitory action (%) (osteoclast fusion [2]; 0.08 uM, 18 hours): 10.14%; Inhibitory action (%) (osteoclast fusion [2]; 0.4 uM, 18 hours): 13.04%; Inhibitory action (%) (osteoclast fusion [2]; 2 uM, 18 hours): 13.77%; Inhibitory action (%) (osteoclast fusion [2]; 10 uM, 18 hours): 12.32%; Inhibitory action (%) (osteoclast fusion [4]; 0.08 uM): 10.14%; Inhibitory action (%) (osteoclast fusion [4]; 0.4 uM): 13.04%; Inhibitory action (%) (osteoclast fusion [4]; 2 uM): 13.77%; Inhibitory action (%) (osteoclast fusion [4]; 10 uM): 12.32%; Inhibitory activity (%) ([5]; 0.01 uM): 0(−24) %; Inhibitory activity (%) ([5]; 0.1 uM): 10.4%; Inhibitory activity (%) ([5]; 1 uM): 24.8%"
"Cc1nc(-c2ccc(OCCCCOc3ccc(C(=N)NO)cc3)cc2)c(C(C)C)s1 [DW1349, N— hydroxy-4-{4-[4-(5-isopropyl-2-methyl-1,3-thiazol-4-yl)phenoxy]butoxy}-benzamidine]",113.2 % of control,19.0,101.6 % of control,17.2,31.9,46.8,85.5,0,2.3,4.5,18,0,2.3,4.5,18,19.3,36.1,64.7,
"Cc1nc(-c2ccc(OCCCCCOc3ccc(C(=N)NO)cc3)cc2)c(C(C)C)s1 [DW1350, N-hydroxy-4-{5-[4-(5-isopropyl-2-methyl-1,3-thiazol-4-yl)phenoxy]pentoxy}-benzamidine]",141.9 % of control,24.4,153.7 % of control,26.7,38.5,62.7,88.7,4.5,25.6,80,98,4.5,25.6,80,98,45.2,52.6,72.6,"times more inhibition of osteoclast differentiation than DW1349 ([1]; versus DW1349, Table 8): 1.34 times; times stronger inhibition of osteoclast differentiation than DW1351 ([1]; versus DW1351, Table 8): about two times better; times stronger inhibition of osteoclast fusion than DW1349 (osteoclast fusion [2]; 2 uM, versus DW1349): 17.8 times; IC50 (osteoclast fusion [2]; Mus musculus, Osteoclast, 18 hours): 810 nM; times more inhibition of osteoclast fusion than DW1351 (osteoclast fusion [2]; versus DW1351): two fold better inhibitor; times better stimulator of osteoblast activity (ALP) than DW1349 ([3]; versus DW1349): 1.25 times; times greater stimulation of osteoblast activity (ALP) than DW1351 and DW1352 ([3]; versus DW1351 and DW1352): 1.15˜1.25 times; IC50 (osteoclast fusion [4]; Mus musculus, Osteoclast): 810 nM; times better than DW1349 in inhibiting osteoclast activity ([5]; versus DW1349, Table 10): about 1.45 times; times more inhibition of osteoclast activity than DW1351 ([5]; versus DW1351, Table 10): two-fold better inhibitor"
"Cc1nc(-c2ccc(OCCCCOc3ccc(C(=N)N)cc3)cc2)c(C(C)C)s1 [DW1351, 4-{4-[4-(5-isopropyl-2-methyl-1,3-thiazol-4-yl)phenoxy]butoxy}-benzamidine]",122.5 % of control,20.8,121.2 % of control,21.0,23,30.6,61.5,0,0,38,74,0,0,38,74,2.1,26.7,51.8,
